Results: patent US20040235666A1, “Substituted imidates as pesticidal agents” (priority 2001, published 2004)

tested on: Meloidogyne incognita larvae; assay: Meloidogyne test/aqueous system; assay type: in vivo; conditions: 40 ppm; nematicidal action by activity of the larvae; 96-well plate; 100% = no activity found
Procedure: Meloidogyne Test/Aqueous System To prepare a suitable preparation of active compound, 1 part by weight of active compound is mixed with 1 000 parts by weight of methanol, and per preparation to be tested, 10 μl are added to a well of a 96-well plate (from Greiner), where the solvent evaporates. In the 96-well plates, the wells containing the active compound are filled with lecithin solution (0.01%) and Meloidogyne incognita larvae suspension. The concentration of active compound is now 40 ppm. After the time indicated in the table, the nematicidal action is determined in % by the activity of the larvae. 100% means that no activity has been found; 0% means that the activity in the treated wells corresponds to that of the untreated control.

SMILES	Effect in % after 4 days [%]
CC(c1ccc(Cl)cc1)N1CCSC1=NC#N (stereo not drawn) [Example 14]	100

tested on: Meloidogyne incognita egg/larvae; assay: Meloidogyne test (sand, lettuce, gall formation); assay type: in vivo; conditions: 20 ppm; nematicidal action by gall formation on lettuce roots; 100% = no galls
Procedure: To prepare a suitable preparation of active compound, 1 part by weight of active compound is mixed with 30 parts by weight of dimethylformamide and 1 part by weight of emulsifier (alllylaryl polyglycol ether), and the concentrate is diluted with water to the desired concentration.
Containers are filled with sand, solution of active compound, Meloidogyne incognita egg/larvae suspension and lettuce seeds. The lettuce seeds germinate and the plants develop. On the roots, galls are formed.
After the period of time indicated in the table, the nematicidal action is determined in % using gall formation as a measure. 100% means that no galls were found; 0% means that the number of galls on the treated plants corresponds to that of the untreated control.
In this test, for example, the following compounds of the Preparation Examples show good activity: […]

SMILES	Effect in % after 4 days [%]
CC(c1ccc(Cl)cc1)N1CCCC1=NC#N (stereo not drawn) [Example 22]	100
CC(c1ccccc1Cl)N1CCSC1=NC#N (stereo not drawn) [Example 3]	100
CC(c1ccc(Cl)cc1)N1CCNC1=NC#N (stereo not drawn) [Example 1, 1-[1-(4-Chlorophenyl)ethyl]-2-imidazolidinylidenecyanamide]	98
CCC(c1ccccc1Cl)N1CCSC1=NC#N (stereo not drawn) [Example 4]	100
CC(c1ccc(Cl)cc1)N1CCSC1=NC#N (stereo not drawn) [Example 14]	100
CC(c1ccc(Cl)cc1)N1CCCN(C)C1=NC#N (stereo not drawn) [Example 28]	95
CC(c1ccc(Cl)cc1)N1CCN(C)C1=NC#N (stereo not drawn) [Example 23]	90

tested on: not listed separately; assay: log P determination by HPLC (EEC Directive 79/831 Annex V.A8, reversed-phase C18); assay type: physicochemical; conditions: reversed-phase C18 HPLC column, C18, 43° C., 0.1% aqueous phosphoric acid/acetonitrile gradient
Procedure: The log P values given in Table 1 were determined in accordance with EEC Directive 79/831 Annex V.A8 by HPLC (High Performance Liquid Chromatography) using a reversed-phase column (C18). Temperature: 43° C. Mobile phase: 0.1% aqueous phosphoric acid, acetonitrile; linear gradient from 10% acetonitrile to 90% acetonitrile Calibration was carried out using unbranched alkan-2-ones (having 3 to 16 C atoms) with known log P values. (Determination of the log P values by the retention times using linear interpolation between two successive alkanones).

SMILES	chromatographic logP
CC(C)c1ccc(C(C)N2CCSC2=NC#N)cc1 (stereo not drawn) [Example 15]	3.11
CSc1ccc(Oc2cccc(CCN3CCSC3=NC#N)c2)cc1 [Example 21]	3.29
N#CN=C1SCCN1C1Cc2ccc(Cl)cc2C1 (stereo not drawn) [Example 33]	2.68
CC1CN(C)/C(=N\C#N)N(C(C)c2ccc(Cl)cc2)C1 (stereo not drawn) [Example 50]	2.52
CC(c1ccc(Cl)cc1)N1CCCN(C)/C1=N\C(N)=S (stereo not drawn) [Example 43]	1.48
CCC(c1ccc(Cl)cc1)N1CCS/C1=N\C#N (stereo not drawn) [Example 39]	2.81
N#CN=C1SCCN1C(CF)c1ccc(Cl)cc1 (stereo not drawn) [Example 18]	2.41
CC(c1ccc(Cl)c(Cl)c1)N1CCCO/C1=N\C#N (stereo not drawn) [Example 48]	2.59
CC(c1ccc(Cl)c(Cl)c1)N1CCSC1=NC#N (stereo not drawn) [Example 13]	2.84
Cc1ccc(C(C)N2CCSC2=NC#N)cc1 (stereo not drawn) [Example 12]	3.06
CC(c1ccc(Cl)cc1)N1OCCN(C)/C1=N\C#N (stereo not drawn) [Example 42]	2.21
CC(c1ccc(Cl)cc1)N1CC[S+]([O-])/C1=N\C#N (stereo not drawn) [Example 40]	1.86
CC(c1ccc(Cl)cc1)N1CSCC/C1=N\C#N (stereo not drawn) [Example 51]	2.63
CC(c1ccc(Cl)cc1Cl)N1CCCO/C1=N\C#N (stereo not drawn) [Example 47]	2.43
CC(c1ccc(Cl)cc1)N1COCC/C1=N\C#N (stereo not drawn) [Example 52]	2.28
CC1CN/C(=N\C#N)N(C(C)c2ccc(Cl)cc2)C1 (stereo not drawn) [Example 49]	2.65
CC(c1ccc(Cl)cc1)N1CCCN(C)C1=NC#N (stereo not drawn) [Example 28]	2.23
CC(=O)Oc1ccc(CCN2CCS/C2=N\C#N)cc1 [Example 46]	1.89
CC(c1ccc(Cl)cc1)N1CCN(C)C1=NC#N (stereo not drawn) [Example 23]	2.29
CSc1ccc(Oc2ccccc2CCN2CCS/C2=N\C#N)cc1 [Example 45]	3.33
CC(c1ccc(Cl)cc1)N1CCCN/C1=N\C(N)=S (stereo not drawn) [Example 41]	1.48
CCc1ccc(C(C)N2CCSC2=NC#N)cc1 (stereo not drawn) [Example 7]	2.09
